The values that follow come from ChEMBL document CHEMBL4483862, “Open-source discovery of chemical leads for next-generation chemoprotective antimalarials” (2018).

For this assay, the system named is Plasmodium berghei. Nature of the assay: Luciferase/luciferin-expressing antifolate-resistant parasites were used to infect a culture of HepG2 cells that were pre-incubated with compounds. Infected hepatocytes emit light due to the luciferase reaction. Assay results are presented as the percent inhibition of light emission compared to control. […]. The assay is classed as functional. Conditions: sporozoite; for IC50: read-out: LUCIFERASE INFECTION ASSAY - IC50; for IC90: read-out: LUCIFERASE INFECTION ASSAY - IC90.

In the case of `Cc1nc(N2N=C3/C(=C/c4ccc(F)cc4)CCCC3C2c2ccc(F)cc2)sc1C(=O)N(C)C` (stereo unspecified), the 50% inhibitory concentration (IC50) is > 10 µM and the IC90 was > 10 µM.

`O=C(COC(=O)c1cccnc1Cl)NCCc1ccc(F)cc1`: the half-maximal inhibitory concentration (IC50) is > 10 µM and the concentration for an effect of 90% (IC90) is > 10 µM.

As to `N#CCC(=O)NN1Cc2ccccc2C1=N`, the half-inhibitory concentration (IC50) is > 10 µM and the IC90 is > 10 µM.

For `Cc1cc(C)nc(N/N=C2/CCCC/C2=C\c2ccccc2)n1`, the IC50 is > 10 µM and the IC90 is > 10 µM.

For `O=C(CNc1cccc(S(=O)(=O)N2CCOCC2)c1)N(C1CCCCC1)C1CCS(=O)(=O)C1` (stereo unspecified), the 50% inhibitory concentration (IC50) was > 10 µM and the 90% effect concentration (IC90) was > 10 µM.

As to `COc1cc(/C=C/C(=O)OCC(=O)Nc2cc(Cl)cc(Cl)c2)cc(OC)c1OC`, the 50% inhibitory concentration (IC50) was > 10 µM and the IC90 is > 10 µM.

As for `CCC(C)(C)c1ccc(Oc2ccc(NC(=O)CN3c4cccc5cccc(c45)S3(=O)=O)cc2)cc1`, the half-inhibitory concentration (IC50) is > 10 µM and the IC90 was > 10 µM.

In the case of `CCc1c(C#N)c(SCC(=O)c2cc(C)n(-c3ccccc3)c2C)nc2c1C(=O)CC(C)(C)C2`, the IC50 was > 10 µM and the concentration for an effect of 90% (IC90) is > 10 µM.

As for `Cc1cc(Br)ccc1NC(=O)CNC(=O)CCC(=O)N1CCC(c2ccccc2)=N1`, the IC50 is > 10 µM and the IC90 is > 10 µM.

In the case of `CCOc1ccc(C2(O)C(C)N3C(=[N+]2c2ccc(OC)cc2)CCc2ccccc23)cc1` (stereo unspecified), the half-inhibitory concentration (IC50) is > 10 µM and the IC90 is > 10 µM.

On to `C/C(=N\NC(=O)c1ccc(N/N=C(\C)c2ccccc2Br)cc1)c1ccccc1Br`, for which the IC50 was > 10 µM and the IC90 was > 10 µM.

Consider `CCN(C(=O)CSc1nnc(SCC(=O)N(CC)C2CCCCC2)s1)C1CCCCC1`, for which the IC50 was > 10 µM and the concentration for an effect of 90% (IC90) was > 10 µM.

As to `CCOc1ccc(S(=O)(=O)N2c3ccccc3C(C(N)=O)CC2C)cc1OCC` (stereo unspecified), the IC50 is > 10 µM and the 90% effect concentration (IC90) was > 10 µM.

Take `O=C(Cn1cc(I)c(=O)c(I)c1)OCC(=O)N1CCCc2ccccc21`: the IC50 is > 10 µM and the concentration for an effect of 90% (IC90) was > 10 µM.

For the compound `COc1ccc(C2NC(=O)NC(c3ccccc3)=C2c2nc3ccccc3s2)cc1OCc1ccccc1` (stereo unspecified), the IC50 came to 9.63 µM and the IC90 is > 10 µM.

As to `CC(C)C(C)NC(=O)CSc1nnc(CC2CCCC2)[nH]1` (stereo unspecified), the IC50 is > 10 µM and the IC90 was > 10 µM.

Consider `CSc1nc2nc(C)c(CCC(=O)N(CC(F)(F)F)C(C)C3CC3)c(C)n2n1` (stereo unspecified), for which the half-maximal inhibitory concentration (IC50) turned out to be 0.994 µM and the IC90 was 1.24 µM.

`COc1cc2c(cc1NC(=O)C1CCCN(S(=O)(=O)c3ccc(F)cc3)C1)oc1ccccc12` (stereo unspecified): the IC50 was > 10 µM and the concentration for an effect of 90% (IC90) is > 10 µM.

In the case of `Cc1nn(-c2ccccc2)c(N2CCCCC2)c1/C=N/Nc1ccc(C(F)(F)F)cn1`, the half-maximal inhibitory concentration (IC50) was > 10 µM and the 90% effect concentration (IC90) is > 10 µM.

On to `Cc1[nH]c(=S)c(C#N)c2c1C1(C)CCC3C(CC=C4CC(O)CCC43C)C1C2` (stereo unspecified), for which the IC50 is > 10 µM and the IC90 is > 10 µM.

As for `N#CCCn1cc(/C=N/Nc2nc3ccccc3s2)c(-c2ccc(F)cc2)n1`, the IC50 was > 10 µM and the concentration for an effect of 90% (IC90) is > 10 µM.

As to `C=CCNC(=S)N/N=C/C1=C(N2CCOCC2)C(=C/c2ccc(Cl)cc2Cl)/CC1`, the concentration for half-maximal inhibition (IC50) was > 10 µM and the IC90 was > 10 µM.

Consider `Cc1c(C(=O)N/N=C/c2c3ccccc3c(Cl)c3ccccc23)nc2ccccn12`, for which the IC50 is > 10 µM and the 90% effect concentration (IC90) was > 10 µM.

Turning to `CCN(CC)c1ccc2cc(/C=N/NC(=O)C34CC5CC(CC(C5)C3)C4)c(=O)oc2c1`, the half-maximal inhibitory concentration (IC50) is > 10 µM and the IC90 is > 10 µM.

Consider `Cc1[nH]c2ccccc2c1/C=N/N(Cc1ccccc1)c1ccccc1`, for which the IC50 was > 10 µM and the IC90 was > 10 µM.

`O=C(COc1cccc(Br)c1)N/N=C/C1=C(N2CCOCC2)C(=C/c2ccc(Cl)cc2)/CC1`: the IC50 was > 10 µM and the IC90 was > 10 µM.

As to `CCCCCCCCNC(=O)/C(C#N)=C/c1ccc(C)cc1C`, the IC50 was > 10 µM and the concentration for an effect of 90% (IC90) is > 10 µM.

In the case of `C/C(=N\Nc1c(Cl)cc(Cl)cc1Cl)c1ccc(N2CCOCC2)cc1`, the 50% inhibitory concentration (IC50) came to 4.84 µM and the IC90 was > 10 µM.

On to `CNC(=S)Nc1ccc(-n2cnc3ccccc32)cc1`, for which the half-inhibitory concentration (IC50) is > 10 µM and the IC90 is > 10 µM.

As for `Cc1cc(C)nc(N/N=C/c2c(C)nn(-c3ccccc3)c2Sc2nc3ccccc3s2)n1`, the 50% inhibitory concentration (IC50) was > 10 µM and the IC90 was > 10 µM.

As to `O=C(O)c1cc(N/N=C(\c2ccncc2)c2ccc([N+](=O)[O-])cc2)cc(C(=O)O)c1`, the IC50 was > 10 µM and the IC90 is > 10 µM.

In the case of `Cc1ccc(C(=O)c2c3c4sc5ccccc5n4c(-c4ccc(C)cc4)nc-3[n+](-c3ccccc3)c2O)cc1`, the IC50 was > 10 µM and the concentration for an effect of 90% (IC90) was > 10 µM.

For `CCOC(=O)c1c(C)[nH]c(N=Nc2ccc3c(c2)OCO3)c1C`, the 50% inhibitory concentration (IC50) came to 9.43 µM and the IC90 was > 10 µM.

As to `O=C(Cn1c(CN2CCCCC2)nc2ccccc2c1=O)Nc1ccccc1Oc1ccccc1`, the IC50 is > 10 µM and the IC90 is > 10 µM.

`CC(C)(C)c1cc(N2Cc3ccccc3C2=N)cc(C(C)(C)C)c1`: the IC50 is > 10 µM and the IC90 is > 10 µM.

Turning to `O=C1Nc2ccc(Br)cc2/C1=N\N=C\c1cc([N+](=O)[O-])ccc1OC(F)F`, the IC50 is > 10 µM and the 90% effect concentration (IC90) is > 10 µM.

As for `O=C(Cn1cnc2scc(-c3ccccc3)c2c1=O)Nc1ccc([N+](=O)[O-])cc1`, the IC50 was > 10 µM and the 90% effect concentration (IC90) is > 10 µM.

Regarding `CCOC(=O)/C(=N\Nc1sc(C(=O)OCC)c(C)c1C(=O)OCC)C(=O)c1ccccc1`, the IC50 came out at 7.51 µM and the concentration for an effect of 90% (IC90) was 9.2 µM.

Consider `COC(=O)c1occc1CSc1nc(NC(=O)c2ccccc2)c2c(C)c(C)oc2n1`, for which the half-inhibitory concentration (IC50) was > 10 µM and the concentration for an effect of 90% (IC90) is > 10 µM.

For the compound `O=C(CCSCc1cc(Cl)c2c(c1)OCO2)Nc1ccc(Cl)cc1F`, the IC50 was > 10 µM and the concentration for an effect of 90% (IC90) was > 10 µM.

As for `CCN(CC)c1ccc(/C=C2\CCC(/C=N/NC(=O)NC3CCCCC3)=C2N2CCOCC2)cc1`, the IC50 is > 10 µM and the IC90 is > 10 µM.

Turning to `N#CC(C(=O)COC(=O)COc1cc(Cl)c(Cl)cc1Cl)=C1Nc2ccccc2N1`, the 50% inhibitory concentration (IC50) is > 10 µM and the IC90 is > 10 µM.

As for `CCc1c(C#N)c(SCC(=O)c2cc(C)n(-c3ccccc3F)c2C)nc2c1C(=O)CC(C)(C)C2`, the IC50 came out at 5.79 µM and the IC90 was > 10 µM.

Regarding `Cc1cc(=O)n(-c2ccc(C(F)(F)F)cc2[N+](=O)[O-])[nH]1`, the concentration for half-maximal inhibition (IC50) was > 10 µM and the IC90 is > 10 µM.

Take `CN(C(=O)CCc1cc(C(C)(C)C)c(O)c(C(C)(C)C)c1)C1CCS(=O)(=O)C1` (stereo unspecified): the IC50 is > 10 µM and the concentration for an effect of 90% (IC90) was > 10 µM.

In the case of `CCN(C(=O)COC(=O)c1nc(-c2ccccc2)n2c1CCCCC2)c1ccccc1`, the IC50 was > 10 µM and the 90% effect concentration (IC90) is > 10 µM.

As to `CC(C)CCn1c(Sc2ccc3nnnn3n2)nc2scc(-c3cccs3)c2c1=O`, the half-inhibitory concentration (IC50) is > 10 µM and the concentration for an effect of 90% (IC90) is > 10 µM.

Consider `COC(=O)c1c(-c2cccs2)csc1NC(=O)CSc1cc(C)c2ccccc2n1`, for which the IC50 was > 10 µM and the IC90 is > 10 µM.
